Reference: patent US12404295B2, “(Hetero)aryl-methyl-thio-beta-D-galactopyranoside derivatives” (Idorsia Pharmaceuticals Ltd, priority 2019, dated 2025)
pIC50: −log10 of the molar value. Read-outs that look alike come from different tables or passages of the source.

How the values were obtained:
human Gal-1 (hGal-1) = human Gal-1 (hGal-1) (Homo sapiens (Human), UniProt P09382); experiment: competitive binding assay: biotinylated hGal-1 binding to microplate-adsorbed asialofetuin (ASF); conditions: Table 15; read-out: IC50 (Galectin-1 inhibition)
human Gal-1 (hGal-1), sequence (P09382 whole entry): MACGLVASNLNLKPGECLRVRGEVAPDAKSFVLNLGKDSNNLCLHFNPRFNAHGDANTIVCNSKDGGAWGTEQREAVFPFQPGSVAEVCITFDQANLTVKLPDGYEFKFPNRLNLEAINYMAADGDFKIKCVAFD
How it was run: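 Biotinylated human Gal-1 (300-1000 ng/mL) competes with serially diluted compound for binding to ASF-coated plates, 3 h at 4° C. Bound protein detected with streptavidin-peroxidase and ABTS substrate (spectrophotometric). IC50 given as mean of several measurements.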

human Gal-3 (hGal-3) = human Gal-3 (hGal-3) (Homo sapiens (Human), UniProt P17931); experiment: competitive binding assay: biotinylated hGal-3 binding to microplate-adsorbed asialofetuin (ASF)
human Gal-3 (hGal-3), sequence (P17931 whole entry): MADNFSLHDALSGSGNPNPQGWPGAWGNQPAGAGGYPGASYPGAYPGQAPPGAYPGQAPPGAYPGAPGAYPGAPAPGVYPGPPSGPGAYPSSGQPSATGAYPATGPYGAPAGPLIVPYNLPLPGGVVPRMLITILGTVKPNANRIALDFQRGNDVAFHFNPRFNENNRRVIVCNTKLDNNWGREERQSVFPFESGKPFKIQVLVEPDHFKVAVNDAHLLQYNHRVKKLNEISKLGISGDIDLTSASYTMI
How it was run: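 Compounds serially diluted in DMSO compete with asialofetuin for biotinylated human Gal-3; plates are incubated 3 h at 4 °C, washed, then treated 1 h at 4 °C with streptavidin-peroxidase (80 ng/mL) and developed with ABTS. IC50 values are means of several measurements.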

[1] = Table 5, read-out: IC50 (Gal-3 inhibition)
[2] = Table 10, 2-OMe-Gal inhibitors, read-out: IC50 (Gal-3 inhibition)
[3] = Gal-3 inhibition, binding of biotinylated hGal-3 to ASF, mean values, read-out: IC50
[4] = Table 9, 2-OMe-Gal inhibitors, read-out: IC50 (Gal-3 inhibition)

pIC50 (human Gal-1 (hGal-1))	pIC50 (human Gal-3 (hGal-3); [1])	pIC50 (human Gal-3 (hGal-3); [2])	pIC50 (human Gal-3 (hGal-3); [3])	pIC50 (human Gal-3 (hGal-3); [4])	SMILES
4.70	6.80				Cc1nc(C)c(C(S[C@@H]2O[C@H](CO)[C@H](O)[C@H](n3cc(-c4cc(F)c(F)c(F)c4)nn3)[C@H]2O)C2(O)CCOCC2)nc1C (stereo partly drawn) [Example 2.41.119., (2R,3R,4S,5R,6S)-2-(Hydroxymethyl)-6-(((4-hydroxytetrahydro-2H-pyran-4-yl)(3,5,6-trimethylpyrazin-2-yl)methyl)thio)-4-(4-(3,4,5-trifluorophenyl)-1H-1,2,3-triazol-1-yl)tetrahydro-2H-pyran-3,5-diol]
6.31	7.22				Cc1nc(C)c([C@@H](S[C@@H]2O[C@H](CO)[C@H](O)[C@H](n3cc(-c4cc(F)c(F)c(F)c4)nn3)[C@H]2O)C2(O)CCOCC2)nc1C [Example 2.41.119R., (2R,3R,4S,5R,6S)-2-(Hydroxymethyl)-6-(((R)-(4-hydroxytetrahydro-2H-pyran-4-yl)(3,5,6-trimethylpyrazin-2-yl)methyl)thio)-4-(4-(3,4,5-trifluorophenyl)-1H-1,2,3-triazol-1-yl)tetrahydro-2H-pyran-3,5-diol]
4.70	5.52				Cc1nc(C)c([C@H](S[C@@H]2O[C@H](CO)[C@H](O)[C@H](n3cc(-c4cc(F)c(F)c(F)c4)nn3)[C@H]2O)C2(O)CCOCC2)nc1C [Example 2.41.119S., (2R,3R,4S,5R,6S)-2-(Hydroxymethyl)-6-(((S)-(4-hydroxytetrahydro-2H-pyran-4-yl)(3,5,6-trimethylpyrazin-2-yl)methyl)thio)-4-(4-(3,4,5-trifluorophenyl)-1H-1,2,3-triazol-1-yl)tetrahydro-2H-pyran-3,5-diol]
6.30		6.72			CO[C@@H]1[C@@H](n2cc(-c3cc(F)c(F)c(F)c3)nn2)[C@@H](O)[C@@H](CO)O[C@H]1S[C@H](c1nocc1C)C1(O)CCOCC1 [Example 2.41.120R.I., (2R,3R,4S,5R,6S)-2-(Hydroxymethyl)-6-(((R)-(4-hydroxytetrahydro-2H-pyran-4-yl)(4-methylisoxazol-3-yl)methyl)thio)-5-methoxy-4-(4-(3,4,5-trifluorophenyl)-1H-1,2,3-triazol-1-yl)tetrahydro-2H-pyran-3-ol]
5.24	6.60				OC[C@H]1O[C@@H](SC(c2ncccc2C(F)(F)F)C2(O)CCOCC2)[C@H](O)[C@@H](n2cc(-c3cc(F)c(F)c(F)c3)nn2)[C@H]1O (stereo partly drawn) [Example 2.41.125., (2R,3R,4S,5R,6S)-2-(Hydroxymethyl)-6-(((4-hydroxytetrahydro-2H-pyran-4-yl)(3-(trifluoromethyl)pyridin-2-yl)methyl)thio)-4-(4-(3,4,5-trifluorophenyl)-1H-1,2,3-triazol-1-yl)tetrahydro-2H-pyran-3,5-diol]
6.89	7.52				OC[C@H]1O[C@@H](S[C@H](c2ncccc2C(F)(F)F)C2(O)CCOCC2)[C@H](O)[C@@H](n2cc(-c3cc(F)c(F)c(F)c3)nn2)[C@H]1O [Example 2.41.125R., (2R,3R,4S,5R,6S)-2-(Hydroxymethyl)-6-(((R)-(4-hydroxytetrahydro-2H-pyran-4-yl)(3-(trifluoromethyl)pyridin-2-yl)methyl)thio)-4-(4-(3,4,5-trifluorophenyl)-1H-1,2,3-triazol-1-yl)tetrahydro-2H-pyran-3,5-diol]
5.13	5.74				OC[C@H]1O[C@@H](S[C@@H](c2ncccc2C(F)(F)F)C2(O)CCOCC2)[C@H](O)[C@@H](n2cc(-c3cc(F)c(F)c(F)c3)nn2)[C@H]1O [Example 2.41.125S., (2R,3R,4S,5R,6S)-2-(Hydroxymethyl)-6-(((S)-(4-hydroxytetrahydro-2H-pyran-4-yl)(3-(trifluoromethyl)pyridin-2-yl)methyl)thio)-4-(4-(3,4,5-trifluorophenyl)-1H-1,2,3-triazol-1-yl)tetrahydro-2H-pyran-3,5-diol]
6.10			7.10		Cc1cccnc1C(S[C@@H]1O[C@H](CO)[C@H](O)[C@H](n2cc(-c3cc(F)c(F)c(F)c3)nn2)[C@H]1O)C1(O)CCOCC1 (stereo partly drawn) [Example 2.41.126., (2R,3R,4S,5R,6S)-2-(Hydroxymethyl)-6-(((4-hydroxytetrahydro-2H-pyran-4-yl)(3-methylpyridin-2-yl)methyl)thio)-4-(4-(3,4,5-trifluorophenyl)-1H-1,2,3-triazol-1-yl)tetrahydro-2H-pyran-3,5-diol]
6.15			7.52		Cc1cccnc1[C@@H](S[C@@H]1O[C@H](CO)[C@H](O)[C@H](n2cc(-c3cc(F)c(F)c(F)c3)nn2)[C@H]1O)C1(O)CCOCC1 [Example 2.41.126R., (2R,3R,4S,5R,6S)-2-(Hydroxymethyl)-6-(((R)-(4-hydroxytetrahydro-2H-pyran-4-yl)(3-methylpyridin-2-yl)methyl)thio)-4-(4-(3,4,5-trifluorophenyl)-1H-1,2,3-triazol-1-yl)tetrahydro-2H-pyran-3,5-diol]
6.10				7.22	CO[C@@H]1[C@@H](n2cc(-c3cc(F)c(F)c(F)c3)nn2)[C@@H](O)[C@@H](CO)O[C@H]1S[C@H](c1ncccc1C)C1(O)CCOCC1 [Example 2.41.126R.I., (2R,3R,4S,5R,6S)-2-(Hydroxymethyl)-6-(((R)-(4-hydroxytetrahydro-2H-pyran-4-yl)(3-methylpyridin-2-yl)methyl)thio)-5-methoxy-4-(4-(3,4,5-trifluorophenyl)-1H-1,2,3-triazol-1-yl)tetrahydro-2H-pyran-3-ol]
4.15			5.65		Cc1cccnc1[C@H](S[C@@H]1O[C@H](CO)[C@H](O)[C@H](n2cc(-c3cc(F)c(F)c(F)c3)nn2)[C@H]1O)C1(O)CCOCC1 [Example 2.41.126S., (2R,3R,4S,5R,6S)-2-(Hydroxymethyl)-6-(((S)-(4-hydroxytetrahydro-2H-pyran-4-yl)(3-methylpyridin-2-yl)methyl)thio)-4-(4-(3,4,5-trifluorophenyl)-1H-1,2,3-triazol-1-yl)tetrahydro-2H-pyran-3,5-diol]
5.72				7.22	CO[C@@H]1[C@@H](n2cc(-c3cc(F)c(F)c(F)c3)nn2)[C@@H](O)[C@@H](CO)O[C@H]1S[C@H](c1ccccc1C)[C@]1(O)CCOC(C)(C)C1 [Example 2.43.102RS.I., (2R,3R,4S,5R,6S)-6-(((R)-((S)-4-Hydroxy-2,2-dimethyltetrahydro-2H-pyran-4-yl)(o-tolyl)methyl)thio)-2-(hydroxymethyl)-5-methoxy-4-(4-(3,4,5-trifluorophenyl)-1H-1,2,3-triazol-1-yl)tetrahydro-2H-pyran-3-ol]
7.40	7.22				CC(C)c1ccccc1[C@@H](S[C@@H]1O[C@H](CO)[C@H](O)[C@H](n2cc(-c3cc(F)c(F)c(F)c3)nn2)[C@H]1O)C1(O)CCC(F)(F)CC1 [Example 2.44.105R., (2S,3R,4S,5R,6R)-2-(((R)-(4,4-Difluoro-1-hydroxycyclohexyl)(2-isopropylphenyl)methyl)thio)-6-(hydroxymethyl)-4-(4-(3,4,5-trifluorophenyl)-1H-1,2,3-triazol-1-yl)tetrahydro-2H-pyran-3,5-diol [1,3-di-deoxy-1-((4,4-difluoro-1-hydroxy-cyclohexan-1-yl)-(2-(-isopropyl)phenyl)methyl-(R)-thio)-3-[4-(3,4,5-trifluorophenyl)-1H-1,2,3-triazol-1-yl]-β-D-galactopyranoside]]
6.82		6.49			CO[C@@H]1[C@@H](n2cc(-c3cc(F)c(F)c(F)c3)nn2)[C@@H](O)[C@@H](CO)O[C@H]1S[C@H](c1ccccc1C(C)C)C1(O)CCC(F)(F)CC1 [Example 2.44.105R.I., (2R,3R,4S,5R,6S)-6-(((R)-(4,4-Difluoro-1-hydroxycyclohexyl)(2-isopropylphenyl)methyl)thio)-2-(hydroxymethyl)-5-methoxy-4-(4-(3,4,5-trifluorophenyl)-1H-1,2,3-triazol-1-yl)tetrahydro-2H-pyran-3-ol]
6.28	6.02				CC(C)c1ccccc1[C@H](S[C@@H]1O[C@H](CO)[C@H](O)[C@H](n2cc(-c3cc(F)c(F)c(F)c3)nn2)[C@H]1O)C1(O)CCC(F)(F)CC1 [Example 2.44.105S., (2S,3R,4S,5R,6R)-2-(((S)-(4,4-Difluoro-1-hydroxycyclohexyl)(2-isopropylphenyl)methyl)thio)-6-(hydroxymethyl)-4-(4-(3,4,5-trifluorophenyl)-1H-1,2,3-triazol-1-yl)tetrahydro-2H-pyran-3,5-diol]
4.27		4.15			CO[C@@H]1[C@@H](n2cc(-c3cc(F)c(F)c(F)c3)nn2)[C@@H](O)[C@@H](CO)O[C@H]1S[C@@H](c1ccccc1C(C)C)C1(O)CCC(F)(F)CC1 [Example 2.44.105S.I., (2R,3R,4S,5R,6S)-6-(((S)-(4,4-Difluoro-1-hydroxycyclohexyl)(2-isopropylphenyl)methyl)thio)-2-(hydroxymethyl)-5-methoxy-4-(4-(3,4,5-trifluorophenyl)-1H-1,2,3-triazol-1-yl)tetrahydro-2H-pyran-3-ol]

SMILES	pIC50 (human Gal-1 (hGal-1))	pIC50 (human Gal-3 (hGal-3); [1])	pIC50 (human Gal-3 (hGal-3); [2])	pIC50 (human Gal-3 (hGal-3); [3])	pIC50 (human Gal-3 (hGal-3); [4])
CC(C)c1ccccc1C(S[C@@H]1O[C@H](CO)[C@H](O)[C@H](n2cc(-c3cc(F)c(F)c(F)c3)nn2)[C@H]1O)C1(O)CCC(F)(F)CC1 (stereo partly drawn) [Example 2.44.105., (2S,3R,4S,5R,6R)-2-(((4,4-Difluoro-1-hydroxycyclohexyl)(2-isopropylphenyl)methyl)thio)-6-(hydroxymethyl)-4-(4-(3,4,5-trifluorophenyl)-1H-1,2,3-triazol-1-yl)tetrahydro-2H-pyran-3,5-diol [1,3-di-deoxy-1-((4,4-difluoro-1-hydroxy-cyclohexan-1-yl)-(2-(-isopropyl)phenyl)methyl-thio)-3-[4-(3,4,5-trifluorophenyl)-1H-1,2,3-triazol-1-yl]-β-D-galactopyranoside]]	7.10	6.85			
